In US10913753B2, “Thienopyridine carboxamides as ubiquitin-specific protease inhibitors” (FORMA Therapeutics, Inc., priority 2016, dated 2021):
pIC50: −log10 of the molar value.

How the values were obtained:
USP28 = USP28 (Homo sapiens (Human), UniProt Q96RU2); assay: Ubiquitin-Rhodamine 110 Assay for USP28 Activity; assay type: biochemical
How it was run: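 Single-point screen at 10 μM, 90 min; follow-up dose-response (25 μM top, 3-fold) with 75 pM USP28 (1-1077)-TEV-6*His, 30 min compound preincubation, Ub-Rh110 substrate for 20 min at room temperature, citric acid stop. Buffer pH 8.0 Tris; fluorescence 485/535 nm; IC50 by 4-parameter logistic fit of % inhibition.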

USP25 = USP25 (Homo sapiens (Human), UniProt Q9UHP3); assay: Ubiquitin-Rhodamine 110 Assay for USP25 Activity; assay type: biochemical
How it was run: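 USP25-His6 (75 pM) preincubated 30 min with compound (25 μM to 1.3 nM, 10-point 3-fold), then Ub-Rh110 added; 45 min at room temperature in pH 8.0 Tris buffer with BME, BGG, Triton X-100, stopped with 10 mM citric acid. Fluorescence 485/535 nm; % inhibition vs no-enzyme and DMSO controls, IC50 by 4-parameter logistic fit.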

Chain of USP25 (Q9UHP3 whole entry): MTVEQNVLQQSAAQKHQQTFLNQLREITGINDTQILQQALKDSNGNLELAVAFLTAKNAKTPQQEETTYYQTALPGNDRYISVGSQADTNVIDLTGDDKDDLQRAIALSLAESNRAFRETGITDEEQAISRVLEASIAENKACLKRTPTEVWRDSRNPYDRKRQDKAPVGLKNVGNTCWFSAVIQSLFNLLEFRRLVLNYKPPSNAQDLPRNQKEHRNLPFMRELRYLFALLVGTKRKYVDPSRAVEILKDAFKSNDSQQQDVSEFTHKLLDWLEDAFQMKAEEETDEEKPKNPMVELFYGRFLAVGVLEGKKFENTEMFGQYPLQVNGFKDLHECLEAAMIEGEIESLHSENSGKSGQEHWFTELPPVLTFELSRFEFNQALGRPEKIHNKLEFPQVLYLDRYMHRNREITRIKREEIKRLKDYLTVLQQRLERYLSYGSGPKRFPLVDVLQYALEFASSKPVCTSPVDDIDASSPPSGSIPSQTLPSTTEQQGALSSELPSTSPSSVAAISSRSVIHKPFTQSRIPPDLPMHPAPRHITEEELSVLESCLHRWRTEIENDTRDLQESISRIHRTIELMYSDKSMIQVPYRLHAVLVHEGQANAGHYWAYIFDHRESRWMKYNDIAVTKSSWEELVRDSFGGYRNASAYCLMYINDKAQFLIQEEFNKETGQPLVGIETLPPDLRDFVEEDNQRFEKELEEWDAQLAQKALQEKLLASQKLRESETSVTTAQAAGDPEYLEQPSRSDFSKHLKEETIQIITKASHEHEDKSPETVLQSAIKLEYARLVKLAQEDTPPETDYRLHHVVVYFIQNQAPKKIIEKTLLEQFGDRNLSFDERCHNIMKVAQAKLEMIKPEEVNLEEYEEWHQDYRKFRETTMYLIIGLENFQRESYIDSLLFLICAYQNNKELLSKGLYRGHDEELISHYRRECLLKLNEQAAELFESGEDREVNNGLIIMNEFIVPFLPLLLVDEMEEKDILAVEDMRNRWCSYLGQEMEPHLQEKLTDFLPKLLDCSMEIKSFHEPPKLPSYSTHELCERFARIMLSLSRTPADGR
Chain of USP28 (Q96RU2 whole entry): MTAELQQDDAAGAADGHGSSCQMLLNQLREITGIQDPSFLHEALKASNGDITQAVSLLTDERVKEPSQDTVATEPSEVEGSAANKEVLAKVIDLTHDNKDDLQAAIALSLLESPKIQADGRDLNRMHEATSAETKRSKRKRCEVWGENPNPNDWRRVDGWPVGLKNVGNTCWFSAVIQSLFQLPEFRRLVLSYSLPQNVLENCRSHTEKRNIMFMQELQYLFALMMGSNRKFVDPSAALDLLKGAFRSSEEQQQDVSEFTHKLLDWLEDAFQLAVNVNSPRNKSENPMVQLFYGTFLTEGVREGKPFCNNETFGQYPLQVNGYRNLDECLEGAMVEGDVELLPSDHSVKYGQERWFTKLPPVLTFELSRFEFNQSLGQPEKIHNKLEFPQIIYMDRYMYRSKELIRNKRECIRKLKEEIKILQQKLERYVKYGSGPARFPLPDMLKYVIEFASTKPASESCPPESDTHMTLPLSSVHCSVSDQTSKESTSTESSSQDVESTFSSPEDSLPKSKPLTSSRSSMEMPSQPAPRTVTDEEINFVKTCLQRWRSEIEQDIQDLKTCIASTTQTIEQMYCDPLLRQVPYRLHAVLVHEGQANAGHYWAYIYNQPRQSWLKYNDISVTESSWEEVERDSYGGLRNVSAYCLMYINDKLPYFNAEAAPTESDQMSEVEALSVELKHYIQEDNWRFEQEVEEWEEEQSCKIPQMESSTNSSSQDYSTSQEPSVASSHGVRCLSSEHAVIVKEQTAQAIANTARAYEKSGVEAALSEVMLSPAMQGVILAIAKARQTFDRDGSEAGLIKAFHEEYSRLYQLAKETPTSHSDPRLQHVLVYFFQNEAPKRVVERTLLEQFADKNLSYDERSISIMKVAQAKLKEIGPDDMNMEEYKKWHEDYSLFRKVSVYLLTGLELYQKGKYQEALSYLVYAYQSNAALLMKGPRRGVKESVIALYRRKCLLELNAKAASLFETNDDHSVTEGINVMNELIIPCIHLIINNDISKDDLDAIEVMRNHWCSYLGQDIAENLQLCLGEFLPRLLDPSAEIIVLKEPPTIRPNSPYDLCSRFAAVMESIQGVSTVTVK

Row | Structure (SMILES) | pIC50 (USP28) | pIC50 (USP25)
1 | CNC1CN(c2cc(F)c(CCNC(=O)c3sc4nc(C)ccc4c3N)cc2F)C1 [Example I-199, 3-Amino-N-(2,5-difluoro-4-(3-(methylamino)azetidin-1-yl)phenethyl) -6-methylthieno[2,3-b]pyridine-2-carboxamide] | 5.70 to 6.70 | 5.70 to 6.70
2 | CCN[C@@H]1CCN(c2ccc(CCNC(=O)c3sc4nc(C)ccc4c3N)cc2)C1 [Example I-200, (R)-3-amino-N-(4-(3-(ethylamino)pyrrolidin-1-yl)phenethyl)-6-methylthieno[2,3-b]pyridine-2-carboxamide] | 5.70 to 6.70 | 5.70 to 6.70
3 | Cc1ccc2c(N)c(C(=O)NC[C@@H](C)c3ccc(N4CCNCC4)cc3)sc2n1 [Example I-203] | 5.70 to 6.70 | 5.00 to 5.70
4 | Cc1ccc2c(N)c(C(=O)NC[C@H](C)c3cc(F)c(N4CCNCC4)cc3F)sc2n1 [Example I-208] | 5.70 to 6.70 | 5.00 to 5.70
5 | Cc1ccc2c(N)c(C(=O)NCCc3cnc(N4CCNCC4)c(Cl)c3)sc2n1 [Example I-215, 3-Amino-N-(2-(5-chloro-6-(piperazin-1-yl)pyridin-3-yl)ethyl)-6-methylthieno[2,3-b]pyridine-2-carboxamide] | 5.70 to 6.70 | 5.00 to 5.70
6 | N#Cc1ccc2c(N)c(C(=O)NCCc3cc(F)c(N4CCNCC4)cc3F)sc2n1 [Example I-220, 3-Amino-6-cyano-N-(2,5-difluoro-4-(piperazin-1-yl)phenethyl)thieno[2,3-b]pyridine-2-carboxamide] | 5.00 to 5.70 | 5.00 to 5.70
7 | Nc1c(C(=O)NCCc2ccc(N3CCNCC3)cc2)sc2nc3c(cc12)CCC3O (centres unmarked) [Example I-223, 3-Amino-7-hydroxy-N-(4-(piperazin-1-yl)phenethyl)-6,7-dihydro-5H-cyclopenta[b]thieno[3,2-e]pyridine-2-carboxamide] | 5.00 to 5.70 | 5.70 to 6.70
